Reference: patent US6465641B1, “One pot synthesis of 5′-hydroxy phosphorylated nucleoside derivatives, and compounds formed thereby” (Parker Hughes Institute, priority 1999, dated 2002)

Columns and labels:
sperm = details: read-out: EC50 value in sperm motility assays
HIV = details: read-out: IC50 value in HIV replication assays

5-bromo-6-methoxy-5,6-dihydro-AZT-5′-(p-bromophenyl methoxyalaninyl phosphate)
EC50 (sperm): 2800 nM
IC50 (HIV): 5 nM
